Data reported in US8481546B2, “CGRP receptor antagonist” (Bristol-Myers Squibb Company, priority 2010, dated 2013).
Read-outs that look alike come from different tables or passages of the source.

Columns and labels:
[1] = target: T1, CGRP receptor in attached whole SK-N-MC cells (Homo sapiens, UniProt O60894+Q16602); test: Cellular functional assay, cyclic AMP assay; assay type: cell-based; settings: 0.3 nM CGRP
T1 construct: endogenous in cells; host or cells: SK-N-MC human neuroblastoma cells (membrane homogenate or attached whole cells)
T1 sequence (Q16602 23-461): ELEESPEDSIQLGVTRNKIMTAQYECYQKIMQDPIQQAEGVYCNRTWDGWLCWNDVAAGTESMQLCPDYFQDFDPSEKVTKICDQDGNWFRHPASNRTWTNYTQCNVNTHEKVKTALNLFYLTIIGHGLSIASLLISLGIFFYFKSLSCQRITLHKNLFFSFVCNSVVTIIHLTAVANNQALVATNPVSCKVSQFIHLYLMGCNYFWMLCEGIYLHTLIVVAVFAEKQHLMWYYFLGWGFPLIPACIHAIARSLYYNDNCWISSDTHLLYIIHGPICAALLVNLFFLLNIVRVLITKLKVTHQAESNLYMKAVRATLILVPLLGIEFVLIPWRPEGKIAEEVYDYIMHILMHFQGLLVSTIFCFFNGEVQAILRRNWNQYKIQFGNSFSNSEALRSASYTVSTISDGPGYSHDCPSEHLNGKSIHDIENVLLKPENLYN
T1 sequence (O60894 27-148): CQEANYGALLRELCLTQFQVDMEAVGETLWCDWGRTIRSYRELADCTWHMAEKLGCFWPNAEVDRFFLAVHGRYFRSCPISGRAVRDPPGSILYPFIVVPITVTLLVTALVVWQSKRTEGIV
Experimental: The CGRP receptor complex is coupled to the Gs class of G proteins. Binding of CGRP to this complex leads to the production of cyclic AMP (adenosine 3′S′-cyclic monophosphate) via Gs-dependent activation of adenylate cyclase.
Functional antagonism by Compound I is determined by measuring its ability to inhibit CGRP-stimulated formation of cyclic AMP in attached whole SK-N-MC cells. SK-N-MC cells are incubated at room temperature with 0.3 nM CGRP alone for 30 minutes, or pre-incubated with various concentrations of Compound I for 15 minutes before the addition of 0.3 nM CGRP and then further incubated for 30 minutes. The Cyclic AMP (cAMP) produced is extracted using the “Lysis Reagent” and its concentration is determined by radioimmunoassay using RPA559 cAMP SPA Direct Screening Assay Kit (Amersham Pharmacia Biotech). IC50 values are defined as the concentration of compound required to inhibit 50% of 0.3 nM CGRP-stimulated cAMP production. Ymax is defined as maximal percent inhibition of 0.3 nM CGRP-stimulated cAMP production.

[2] = target: T2, CGRP receptor (CGRP-stimulated cAMP production) (Homo sapiens, UniProt O60894+Q16602); test: Schild analysis of CGRP-stimulated cAMP production; assay type: cell-based
T2 construct: endogenous in cells; host or cells: SK-N-MC human neuroblastoma cells (membrane homogenate or attached whole cells)
T2 sequence (Q16602 23-461): as the sequence (Q16602 23-461) above
T2 sequence (O60894 27-148): as the sequence (O60894 27-148) above
Experimental: Schild analysis is used to characterize the nature of the antagonism of Compound I. The dose response of CGRP-stimulated cAMP production is generated either with CGRP alone, or with CGRP in the presence of various concentrations of Compound I. Specifically, dose-dependent cAMP stimulation by CGRP is assayed with or without five different concentrations of Compound I. The concentration of Compound I is plotted on the X-axis against the dose ratio minus 1 on the Y-axis (dose ratio is defined as the EC50 of CGRP in the presence of Compound I divided by the EC50 of CGRP alone). Linear regression is then performed with both X and Y axes log-transformed. […] Kb is the antagonist dissociation constant.

[3] = Intravenous exposure in rats (reference for bioavailability); settings: rat, in vivo, intravenous administration of 1 mg/kg, read-out: AUC0-24 h
[4] = test system: olfactory epithelium (nasal turbinates); assay type: in vivo, rats
Source text: Compound I and Compound II were also compared directly for intranasal irritation. […] The only endpoint evaluated in this study was histological evaluation of the nasal turbinates.

[5] = One-week comparative intranasal irritation study in rats: toxicokinetics; settings: male, rat, in vivo; for Cmax / Tmax / AUC(0-t) / half-life: inhaled or intranasal; for concentration at 24 h: other: intranasal instillation
Experimental: This study was conducted to compare potential nasal irritation of Compound I to Compound III when given intranasally to male rats for 1 week. Male rats (10/group) were instilled intranasally with Compound I or Compound III solutions ([…] in 225 mM succinic acid, 0.02% benzalkonium chloride, 1.25% anhydrous dextrose, pH 5.8-6.2) once daily at a dose volume of 100 μL/nostril. Using this dosing paradigm, fixed doses of 5, 15 or 35 mg of test article were delivered daily. As a consequence, dosages normalized to body weight decreased with time as the rats grew. One control group was given succinate vehicle and a sham control group was given saline by intranasal instillation. Parameters evaluated included clinical observations, body weight, food consumption, toxicokinetics, and histological evaluation of nasal tissues.

[6] = 25 μL/nostril, 75 mg/ml, 3.75 mg/rat/day (0.268 mg/cm^2)
[7] = 25 μL/nostril, 175 mg/ml, 8.75 mg/rat/day (0.625 mg/cm^2)
[8] = 100 μL/nostril, 175 mg/ml, 35 mg/rat/day (2.500 mg/cm^2)
[9] = 5 mg, intranasal 5 mg (0.357 mg/cm^2) once daily, Day 0
[10] = 5 mg, intranasal 5 mg (0.357 mg/cm^2) once daily, Day 6
[11] = 15 mg, intranasal 15 mg (1.07 mg/cm^2) once daily, Day 0
[12] = 15 mg, intranasal 15 mg (1.07 mg/cm^2) once daily, Day 6
[13] = 35 mg, intranasal 35 mg (2.50 mg/cm^2) once daily, Day 0
[14] = 35 mg, intranasal 35 mg (2.50 mg/cm^2) once daily, Day 6

**Q.** With `Cc1cc(C[C@@H](NC(=O)N2CCC(c3cc4ccccc4[nH]c3=O)CC2)C(=O)N2CCN(C3CCN(C)CC3)CC2)cc2cn[nH]c12` [Compound I, (R)—N-(3-(7-methyl-1H-indazol-5-yl)-1-(4-(1-methylpiperidin-4-yl)piperazin-1-yl)-1-oxopropan-2-yl)-4-(2-oxo-1,2-dihydroquinolin-3-yl)piperidine-1-carboxamide] as the compound, how does the “Ymax, maximal percent inhibition of CGRP-stimulated cAMP production” value [1] read?
**A.** 95.4 (±1.3) %

**Q.** What about the IC50 ([1]; read-out: IC50, inhibition of CGRP-stimulated cAMP production) of the same compound?
**A.** 0.0386 ± 0.0042 nM

**Q.** And the “Schild analysis mean slope” value [2]?
**A.** 1.02±0.04

**Q.** What about the Kb ([2]; Schild analysis, read-out: mean antagonist dissociation constant Kb) of the same compound?
**A.** 0.0215 ± 0.0094 nM

**Q.** What about the AUC(0-t) [3] of the same compound?
**A.** 7.7 µM·h

**Q.** What about the “Olfactory epithelial toxicity, number of animals with severity None” value ([4]; 12.5 μL/nostril, 75 mg/ml, 1.875 mg/rat/day (0.134 mg/cm^2)) of the same compound?
**A.** 5

**Q.** And the “Olfactory epithelial toxicity, number of animals with severity None” value ([4]; 12.5 μL/nostril, 175 mg/ml, 4.375 mg/rat/day (0.313 mg/cm^2))?
**A.** 5

**Q.** And the “Olfactory epithelial toxicity, number of animals with severity Minimal” value [4, 6]?
**A.** 3

**Q.** And the “Olfactory epithelial toxicity, number of animals with severity None” value [4, 6]?
**A.** 2

**Q.** And the “Olfactory epithelial toxicity, number of animals with severity Minimal” value [4, 7]?
**A.** 1

**Q.** And the “Olfactory epithelial toxicity, number of animals with severity None” value [4, 7]?
**A.** 4

**Q.** And the “Olfactory epithelial toxicity, number of animals with severity Slight” value ([4]; 100 μL/nostril, 75 mg/ml, 15 mg/rat/day (1.071 mg/cm^2))?
**A.** 5

**Q.** What about the “Olfactory epithelial toxicity, number of animals with severity Mild” value [4, 8] of the same compound?
**A.** 4

**Q.** And the “Olfactory epithelial toxicity, number of animals with severity Slight” value [4, 8]?
**A.** 1

**Q.** And the Cmax [5, 9]?
**A.** 330 nM

**Q.** What about the Tmax [5, 9] of the same compound?
**A.** 0.5 h

**Q.** What about the AUC(0-t) ([5]; 5 mg, intranasal 5 mg (0.357 mg/cm^2) once daily, Day 0, read-out: Composite AUC0-24 h) of the same compound?
**A.** 1.6 µM·h

**Q.** What about the half-life ([5]; 5 mg, intranasal 5 mg (0.357 mg/cm^2) once daily, Day 0, read-out: Mean T1/2 (converted)) of the same compound?
**A.** 7.1 h

**Q.** And the Cmax [5, 10]?
**A.** 660 nM

**Q.** And the Tmax [5, 10]?
**A.** 1 h

**Q.** What about the AUC(0-t) ([5]; 5 mg, intranasal 5 mg (0.357 mg/cm^2) once daily, Day 6, read-out: Composite AUC0-24 h) of the same compound?
**A.** 2.6 µM·h

**Q.** And the half-life ([5]; 5 mg, intranasal 5 mg (0.357 mg/cm^2) once daily, Day 6, read-out: Mean T1/2 (converted))?
**A.** 5.6 h

**Q.** What about the Cmax [5, 11] of the same compound?
**A.** 2200 nM

**Q.** And the Tmax [5, 11]?
**A.** 1 h

**Q.** What about the AUC(0-t) ([5]; 15 mg, intranasal 15 mg (1.07 mg/cm^2) once daily, Day 0, read-out: Composite AUC0-24 h) of the same compound?
**A.** 4.6 µM·h

**Q.** And the half-life ([5]; 15 mg, intranasal 15 mg (1.07 mg/cm^2) once daily, Day 0, read-out: Mean T1/2 (converted))?
**A.** 5.1 h

**Q.** And the Cmax [5, 12]?
**A.** 830 nM

**Q.** And the Tmax [5, 12]?
**A.** 0.5 h

**Q.** And the AUC(0-t) ([5]; 15 mg, intranasal 15 mg (1.07 mg/cm^2) once daily, Day 6, read-out: Composite AUC0-24 h)?
**A.** 5.2 µM·h

**Q.** What about the half-life ([5]; 15 mg, intranasal 15 mg (1.07 mg/cm^2) once daily, Day 6, read-out: Mean T1/2 (converted)) of the same compound?
**A.** 6.7 h

**Q.** And the Cmax [5, 13]?
**A.** 1500 nM

**Q.** What about the Tmax [5, 13] of the same compound?
**A.** 2 h

**Q.** And the AUC(0-t) ([5]; 35 mg, intranasal 35 mg (2.50 mg/cm^2) once daily, Day 0, read-out: Composite AUC0-24 h)?
**A.** 7.9 µM·h

**Q.** And the Cmax [5, 14]?
**A.** 1200 nM

**Q.** And the Tmax [5, 14]?
**A.** 1 h

**Q.** What about the AUC(0-t) ([5]; 35 mg, intranasal 35 mg (2.50 mg/cm^2) once daily, Day 6, read-out: Composite AUC0-24 h) of the same compound?
**A.** 5.4 µM·h

**Q.** What about the half-life ([5]; 35 mg, intranasal 35 mg (2.50 mg/cm^2) once daily, Day 6, read-out: Mean T1/2 (converted)) of the same compound?
**A.** 6 h

**Q.** What about the concentration at 24 h ([5]; 5 mg, intranasal 5 mg (0.357 mg/cm^2) once daily, Day 0, read-out: Mean C24 h) of the same compound?
**A.** 22 nM

**Q.** And the concentration at 24 h ([5]; 5 mg, intranasal 5 mg (0.357 mg/cm^2) once daily, Day 6, read-out: Mean C24 h)?
**A.** 15 nM

**Q.** What about the concentration at 24 h ([5]; 15 mg, intranasal 15 mg (1.07 mg/cm^2) once daily, Day 0, read-out: Mean C24 h) of the same compound?
**A.** 17 nM

**Q.** And the concentration at 24 h ([5]; 15 mg, intranasal 15 mg (1.07 mg/cm^2) once daily, Day 6, read-out: Mean C24 h)?
**A.** 59 nM

**Q.** And the concentration at 24 h ([5]; 35 mg, intranasal 35 mg (2.50 mg/cm^2) once daily, Day 0, read-out: Mean C24 h)?
**A.** 120 nM

**Q.** And the concentration at 24 h ([5]; 35 mg, intranasal 35 mg (2.50 mg/cm^2) once daily, Day 6, read-out: Mean C24 h)?
**A.** 36 nM
